Measurements published in patent publication EP4714953A1, “MELANOCORTIN 2-TYPE RECEPTOR ANTAGONIST” (Scohia Pharma, Inc., priority 2023, dated 2024).

Experiments:
human MC2R = target: T1, human MC2R (Homo sapiens, UniProt Q01718); assay: Measurement of human MC2R inhibitory activity using intracellular cAMP concentration as an indicator; type: cell-based; details: test compound at 1 µM; GeneBLAzer MC2R-CRE-bla CHO-K1 cells; ACTH (Human 1-24) final concentration 3 pM; intracellular cAMP by HTRF; read-out: MC2R inhibition rate (% of inhibition)
T1 construct: host or cells: GeneBLAzer MC2R-CRE-bla CHO-K1 cells
T1 sequence (Q01718 whole entry): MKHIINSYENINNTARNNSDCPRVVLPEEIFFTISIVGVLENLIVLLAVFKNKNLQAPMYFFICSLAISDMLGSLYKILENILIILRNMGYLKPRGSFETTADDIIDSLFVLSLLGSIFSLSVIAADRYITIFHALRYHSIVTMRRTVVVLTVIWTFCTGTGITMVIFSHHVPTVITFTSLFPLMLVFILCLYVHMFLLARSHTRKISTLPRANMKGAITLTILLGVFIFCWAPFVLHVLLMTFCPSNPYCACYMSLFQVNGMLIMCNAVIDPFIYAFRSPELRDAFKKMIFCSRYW
T1 sequence (Q8TCY5 whole entry partner): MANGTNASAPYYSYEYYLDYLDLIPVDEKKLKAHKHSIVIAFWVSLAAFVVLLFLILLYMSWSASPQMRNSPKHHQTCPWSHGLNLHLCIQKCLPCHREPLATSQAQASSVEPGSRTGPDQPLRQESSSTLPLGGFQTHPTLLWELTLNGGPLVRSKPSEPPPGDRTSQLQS
How it was run: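 MC2R-CRE-bla CHO-K1 cells at 1,500/well in HBSS with 10 mM HEPES pH 7.5, 0.01% BSA and 500 µM IBMX, preincubated 20 min with compound, then stimulated with 3 pM ACTH(1-24) for 30 min at room temperature. cAMP read by HTRF; % inhibition from the ACTH-stimulated and unstimulated windows.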

[1] = tested on: ACTH-induced corticosterone secretion; assay: Suppressive action of ACTH-induced corticosterone secretion in mice; type: in vivo; details: 10 mg/kg, p.o.; male ICR mice; ACTH (1-24) 100 µg/kg subcutaneously 1 hr later; AUC up to 2 hr after ACTH administration
Description: Experimental Example 2: Suppressive action of ACTH-induced corticosterone secretion in mice
Nine-week-old male ICR mice (CHARLES RIVER LABORATORIES JAPAN, INC.) were used in the test.
The mice were assigned to each group based on body weight, with 5 mice per group. Test compounds were suspended in 0.5% (w/v) methylcellulose solution. ACTH (1-24) (A0948, LKT Laboratories, Inc.) was dissolved in saline. The test compound (10 mg/kg) or vehicle was orally administered to mice, and 1 hr later, ACTH solution (100 µg/kg) was administered subcutaneously. Blood was collected from the tail vein before ACTH administration and 0.5, 1, and 2 hr after administration, and corticosterone concentration in plasma was measured using an ELISA kit (EC3001-1, Assaypro). Using the plasma corticosterone concentration at each time point, the area under the blood concentration-time curve up to 2 hr after administration (AUC0-2h) was calculated.

Structure (SMILES)	inhibition at 1 µM (human MC2R)	plasma corticosterone AUC0-2h (% of vehicle, mean±S.D.) [1]
CCOc1ncccc1-c1ccc(N2C[C@H]3CN(c4ccc(Cl)cc4C(F)(F)F)C(=O)N3C[C@H]2CC)c(C(=O)NCC2(O)COC2)n1 [Example 30, 3-[(6R,8aS)-2-[4-chloro-2-(trifluoromethyl)phenyl]-6-ethyl-3-oxo-5,6,8,8a-tetrahydro-1H-imidazo[1,5-a]pyrazin-7-yl]-6-(2-ethoxypyridin-3-yl)-N-[(3-hydroxyoxetan-3-yl)methyl]pyridine-2-carboxamide]	100%	8.6 ± 2.4 % of vehicle
CCOc1ncccc1-c1ccc(N2C[C@H]3CN(c4ccc(Cl)cc4C(F)(F)F)C(=O)N3C[C@H]2CC)c(C(=O)N[C@@H]2CCNC2)n1 [Example 31, 3-[(6R,8aS)-2-[4-chloro-2-(trifluoromethyl)phenyl]-6-ethyl-3-oxo-5,6,8,8a-tetrahydro-1H-imidazo[1,5-a]pyrazin-7-yl]-6-(2-ethoxypyridin-3-yl)-N-[(3R)-pyrrolidin-3-yl]pyridine-2-carboxamide]	100%	61.1 ± 7.3 % of vehicle
CCOc1ncccc1-c1ccc(N2C[C@H]3CN(c4ccc(Cl)cc4C(F)(F)F)C(=O)N3C[C@H]2CC)c(C(=O)NC[C@H](C)O)n1 [Example 34, 3-[(6R,8aS)-2-[4-chloro-2-(trifluoromethyl)phenyl]-6-ethyl-3-oxo-5,6,8,8a-tetrahydro-1H-imidazo[1,5-a]pyrazin-7-yl]-6-(2-ethoxypyridin-3-yl)-N-[(2S)-2-hydroxypropyl]pyridine-2-carboxamide]	96%	15.6 ± 4.9 % of vehicle
CCOc1ncccc1-c1ccc(N2C[C@H]3CN(c4ccc(Cl)cc4C(F)(F)F)C(=O)N3C[C@H]2CC)c(C(=O)NCC(=O)NC)n1 [Example 37, 3-[(6R,8aS)-2-[4-chloro-2-(trifluoromethyl)phenyl]-6-ethyl-3-oxo-5,6,8,8a-tetrahydro-1H-imidazo[1,5-a]pyrazin-7-yl]-6-(2-ethoxypyridin-3-yl)-N-[2-(methylamino)-2-oxoethyl]pyridine-2-carboxamide]	100%	14.0 ± 1.8 % of vehicle
CCOc1ncccc1-c1ccc(N2C[C@H]3CN(c4ccc(Cl)cc4C(F)(F)F)C(=O)N3C[C@H]2CC)c(C(=O)N[C@H]2CNC(=O)C2)n1 [Example 38, 3-[(6R,8aS)-2-[4-chloro-2-(trifluoromethyl)phenyl]-6-ethyl-3-oxo-5,6,8,8a-tetrahydro-1H-imidazo[1,5-a]pyrazin-7-yl]-6-(2-ethoxypyridin-3-yl)-N-[(3R)-5-oxopyrrolidin-3-yl]pyridine-2-carboxamide]	100%	14.2 ± 4.3 % of vehicle
CCOc1ncccc1-c1ccc(N2C[C@H]3CN(c4ccc(Cl)cc4C(F)(F)F)C(=O)N3C[C@H]2CC)c(C(=O)N[C@@H]2CCNC2=O)n1 [Example 47, 3-[(6R,8aS)-2-[4-chloro-2-(trifluoromethyl)phenyl]-6-ethyl-3-oxo-5,6,8,8a-tetrahydro-1H-imidazo[1,5-a]pyrazin-7-yl]-6-(2-ethoxypyridin-3-yl)-N-[(3R)-2-oxopyrrolidin-3-yl]pyridine-2-carboxamide]	100%	17.5 ± 4.4 % of vehicle
CCOc1ncccc1-c1ccc(N2C[C@H]3CN(c4ccc(Cl)cc4C(F)(F)F)C(=O)N3C[C@H]2CC)c(C(=O)N[C@@H]2CC(=O)N(C)C2)n1 [Example 49, 3-[(6R,8aS)-2-[4-chloro-2-(trifluoromethyl)phenyl]-6-ethyl-3-oxo-5,6,8,8a-tetrahydro-1H-imidazo[1,5-a]pyrazin-7-yl]-6-(2-ethoxypyridin-3-yl)-N-[(3R)-1-methyl-5-oxopyrrolidin-3-yl]pyridine-2-carboxamide]	100%	7.7 ± 2.5 % of vehicle
CCOc1ccccc1-c1ccc(N2C[C@H]3CN(c4ccc(Cl)cc4C(F)(F)F)C(=O)N3C[C@H]2C)c(C(=O)N[C@@H]2CC(=O)N(C)C2)n1 [Example 63, 3-[(6R,8aS)-2-[4-chloro-2-(trifluoromethyl)phenyl]-6-methyl-3-oxo-5,6,8,8a-tetrahydro-1H-imidazo[1,5-a]pyrazin-7-yl]-6-(2-ethoxyphenyl)-N-[(3R)-1-methyl-5-oxopyrrolidin-3-yl]pyridine-2-carboxamide]	100%	–
COc1ccccc1-c1ccc(N2C[C@H]3CN(c4ccc(Cl)cc4C(F)(F)F)C(=O)N3C[C@H]2C)c(C(=O)N[C@@H]2CC(=O)N(C)C2)n1 [Example 64, 3-[(6R,8aS)-2-[4-chloro-2-(trifluoromethyl)phenyl]-6-methyl-3-oxo-5,6,8,8a-tetrahydro-1H-imidazo[1,5-a]pyrazin-7-yl]-6-(2-methoxyphenyl)-N-[(3R)-1-methyl-5-oxopyrrolidin-3-yl]pyridine-2-carboxamide]	95%	–
CCOc1ncccc1-c1ccc(N2C[C@H]3CN(C4(C(F)(F)F)CCC4)C(=O)N3C[C@H]2CC)c(C(=O)N[C@@H]2CC(=O)N(C)C2)n1 [Example 65, 3-[(6R,8aS)-6-ethyl-3-oxo-2-[1-(trifluoromethyl)cyclobutyl]-5,6,8,8a-tetrahydro-1H-imidazo[1,5-a]pyrazin-7-yl]-6-(2-ethoxy-3-pyridinyl)-N-[(3R)-1-methyl-5-oxopyrrolidin-3-yl]pyridine-2-carboxamide]	89%	–
CCOc1ccccc1-c1ccc(N2C[C@H]3CN(C4(C(F)(F)F)CCC4)C(=O)N3C[C@H]2CC)c(C(=O)N[C@@H]2CC(=O)N(C)C2)n1 [Example 66, 3-[(6R,8aS)-6-ethyl-3-oxo-2-[1-(trifluoromethyl)cyclobutyl]-5,6,8,8a-tetrahydro-1H-imidazo[1,5-a]pyrazin-7-yl]-6-(2-ethoxyphenyl)-N-[(3R)-1-methyl-5-oxopyrrolidin-3-yl]pyridine-2-carboxamide]	97%	–
CCOc1ccccc1-c1ccc(N2C[C@H]3CN(c4ccc(Cl)cc4C(F)(F)F)C(=O)N3C[C@H]2CC)c(C(=O)N[C@@H]2CC(=O)N(C)C2)n1 [Example 67, 3-[(6R,8aS)-2-[4-chloro-2-(trifluoromethyl)phenyl]-6-ethyl-3-oxo-5,6,8,8a-tetrahydro-1H-imidazo[1,5-a]pyrazin-7-yl]-6-(2-ethoxyphenyl)-N-[(3R)-1-methyl-5-oxopyrrolidin-3-yl]pyridine-2-carboxamide]	94%	–
CC[C@@H]1CN2C(=O)N(c3ccc(Cl)cc3C(F)(F)F)C[C@@H]2CN1c1ccc(-c2ccccc2OC)nc1C(=O)N[C@@H]1CC(=O)N(C)C1 [Example 68, 3-[(6R,8aS)-2-[4-chloro-2-(trifluoromethyl)phenyl]-6-ethyl-3-oxo-5,6,8,8a-tetrahydro-1H-imidazo[1,5-a]pyrazin-7-yl]-6-(2-methoxyphenyl)-N-[(3R)-1-methyl-5-oxopyrrolidin-3-yl]pyridine-2-carboxamide]	96%	–
CC[C@@H]1CN2C(=O)N(c3ccc(Cl)cc3C(F)(F)F)C[C@@H]2CN1c1ccc(-c2cccnc2OC)nc1C(=O)N[C@@H]1CC(=O)N(C)C1 [Example 69, 3-[(6R,8aS)-2-[4-chloro-2-(trifluoromethyl)phenyl]-6-ethyl-3-oxo-5,6,8,8a-tetrahydro-1H-imidazo[1,5-a]pyrazin-7-yl]-6-(2-methoxy-3-pyridinyl)-N-[(3R)-1-methyl-5-oxopyrrolidin-3-yl]pyridine-2-carboxamide]	92%	–
